For one assay, the target named is NspS-MbaA (Vibrio cholerae, UniProt Q9KU25). As to conditions: ΔnspC ΔpotD1 V. cholerae cells (no norspermidine synthesis or import); M9 minimal medium; activates MbaA diguanylate cyclase output via NspS.
For another assay, the target named is NspS-6xHis (Vibrio cholerae, UniProt Q9KU25). The experiment in a line: biochemical.

The structures appear in SMILES notation.

In general, EC50 refers to the midpoint of the concentration-response curve. As usually defined, the Kd is the concentration at which binding is half-saturated.

Chain of NspS-6xHis (Q9KU25 35-359 limits assumed): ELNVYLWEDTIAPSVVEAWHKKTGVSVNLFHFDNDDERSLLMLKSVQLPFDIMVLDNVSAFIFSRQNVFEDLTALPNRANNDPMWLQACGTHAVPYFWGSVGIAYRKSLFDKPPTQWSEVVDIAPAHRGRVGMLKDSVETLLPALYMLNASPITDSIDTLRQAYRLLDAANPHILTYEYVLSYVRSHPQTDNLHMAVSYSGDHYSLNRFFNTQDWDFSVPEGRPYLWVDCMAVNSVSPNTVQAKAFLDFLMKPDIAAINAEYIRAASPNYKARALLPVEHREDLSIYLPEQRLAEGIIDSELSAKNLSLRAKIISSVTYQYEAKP
Chain of NspS-MbaA (Q9KU25 whole entry, looked up): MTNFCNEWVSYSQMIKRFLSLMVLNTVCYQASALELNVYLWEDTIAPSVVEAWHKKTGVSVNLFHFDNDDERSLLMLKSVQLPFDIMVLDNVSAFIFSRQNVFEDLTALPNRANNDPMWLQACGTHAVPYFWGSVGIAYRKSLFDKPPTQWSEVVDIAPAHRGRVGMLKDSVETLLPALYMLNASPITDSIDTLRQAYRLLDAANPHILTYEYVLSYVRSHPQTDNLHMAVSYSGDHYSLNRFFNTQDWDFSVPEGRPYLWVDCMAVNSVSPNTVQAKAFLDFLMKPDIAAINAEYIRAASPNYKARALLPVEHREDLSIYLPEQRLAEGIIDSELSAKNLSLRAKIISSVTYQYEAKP

In the case of `NCCCNCCCN` [norspermidine], the EC50 on NspS-MbaA was in the range of 1 to 5 nM. Further, on NspS-6xHis, the Kd is 67.1 ± 12.2 nM. Turning to `NCCCCNCCCN` [spermidine], binding on NspS-6xHis was characterised by a dissociation constant (Kd) of 48.4 ± 14.7 nM.

For the origin of these results see paper PMC8967002, “Quantitative input–output dynamics of a c-di-GMP signal transduction cascade in Vibrio cholerae” (PLoS Biology, 2022).
